In patent US20250034170A1, “SMALL MOLECULE MODULATORS OF GLUCOCEREBROSIDASE ACTIVITY AND USES THEREOF” (Vanqua Bio, Inc., priority 2021, published 2025) one finds EC50 data, which are given here for 55 compounds.

Bounds are passed on as bounds.

The target in this experiment is T1, GCase (Homo sapiens, UniProt P04062).
T1 construct: endogenous in cells; host or cells: HeLa cells
T1 sequence (P04062 40-536): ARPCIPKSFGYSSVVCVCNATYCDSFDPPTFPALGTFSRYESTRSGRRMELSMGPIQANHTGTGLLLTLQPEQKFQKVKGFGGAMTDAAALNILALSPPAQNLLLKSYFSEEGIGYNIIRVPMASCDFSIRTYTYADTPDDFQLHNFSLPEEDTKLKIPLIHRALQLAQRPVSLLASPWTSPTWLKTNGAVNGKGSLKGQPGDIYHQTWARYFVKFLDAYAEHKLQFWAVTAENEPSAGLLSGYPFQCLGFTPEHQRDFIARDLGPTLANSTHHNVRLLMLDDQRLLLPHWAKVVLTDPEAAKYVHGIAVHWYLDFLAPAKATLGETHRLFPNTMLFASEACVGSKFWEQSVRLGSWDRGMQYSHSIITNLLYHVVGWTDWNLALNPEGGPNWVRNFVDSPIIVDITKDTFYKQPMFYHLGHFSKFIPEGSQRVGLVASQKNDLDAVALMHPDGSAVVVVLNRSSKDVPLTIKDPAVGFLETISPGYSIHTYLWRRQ
Nature of the experiment: activation of GCase in a live cell PFB assay in HELA cells. It counts as cell-based. The method, then:
Exemplary compounds were evaluated for activation of GCase in a live cell PFB assay in HELA cells (essentially as described in Ysselstein et al., “LRRK2 kinase activity regulates lysosomal glucocerebrosidase in neurons derived from Parkinson's disease patients” Nature Communications (2019) 10:5570). […] EC50 ranges: A: <10 μM; B: >10-50 μM; C: >50-100 μM; D: >100 μM.

Where [1] appears, read: activation of GCase, EC50 ranges.

For `O=C1N(c2cc(C(F)(F)F)ccn2)CCC12CCN(c1nccn3cncc13)CC2` [Cmpd 264], the concentration giving a half-maximal response (EC50) under setting [1] was greater than 100 µM.

For the setting “EC50 given as range classes”, `Cn1c(N2CCC3(CCN(c4ccnc(C(F)(F)F)c4)C3)CC2)nc2c(cnn2CC(F)F)c1=O` [Cmpd 1013] showed a concentration giving a half-maximal response (EC50) of less than 10 µM.

In the case of `O=C1N(c2ccc(C(F)(F)F)nc2)C(=O)C2(CCN(c3cnc4cnn(CC(F)F)c4n3)CC2)N1CCCC(F)(F)F` [Cmpd 881], the concentration for a half-maximal effect (EC50) under setting [1] was less than 10 µM.

For the compound `FC(F)(F)c1cc(N2CC3(CCN(c4cncc(-c5ncc(C(F)(F)F)s5)n4)C3)C2)ccn1` [Cmpd 1028], the concentration giving a half-maximal response (EC50) (EC50 given as range classes) was in the range of 10 to 50 µM.

Turning to `COCCOc1cccc(N2CCC3(CCN(c4cnc5cnn(CC(F)F)c5n4)CC3)C2=O)n1` [Cmpd 672], the EC50 under setting [1] lay within 10 to 50 µM.

For the compound `FC(F)Cn1ncc2ncc(N3CCCC4(CC(Oc5ccc(C(F)(F)F)cn5)C4)C3)nc21` (stereo not shown) [Compound 28, 6-[1-(2,2-difluoroethyl)-1H-pyrazolo[3,4-b]pyrazin-6-yl]-2-{[5-(trifluoromethyl)pyridin-2-yl]oxy}-6-azaspiro[3.5]nonane], under setting [1], the EC50 fell in the range of 10 to 50 µM.

As to `Cn1c(N2CCC3(CCN(c4nccc(C(F)(F)F)n4)C3)CC2)nc2c(cnn2C2COC2)c1=O` [Cmpd 1057], the EC50 under setting [1] fell in the range of 10 to 50 µM.

`O=C1CC2(CCN(c3cnc4cnn(CC(F)F)c4n3)CC2)CN1c1cncc(C(F)(F)F)n1` [Cmpd 274]: the half-maximal effective concentration (EC50) under setting [1] is less than 10 µM.

Under “EC50 given as range classes”, `CCN1C(=O)N(c2ccnc(C(F)(F)F)c2)C(=O)C12CCN(c1cnc3cnn(C4COC4)c3n1)CC2` [Cmpd 983] yielded a 50% effective concentration (EC50) of 10 to 50 µM.

For the setting “EC50 given as range classes”, `O=C(c1ccc(OC(F)F)cc1)N1CC2(CCN(c3cnc4cnn(CC(F)F)c4n3)C2)C1` [Cmpd 387] had an EC50 of 10 to 50 µM.

Under setting [1], `CCc1ncc(N2CCC3(CCN(c4cnc5cnn(CC(F)F)c5n4)CC3)C2)cn1` [Cmpd 760] showed an EC50 of less than 10 µM.

With `CCC1N(c2ccnc(C(F)(F)F)c2)C(=O)CC12CCN(c1cnc3cnn(CC(F)F)c3n1)CC2` (stereo not shown) [Cmpd 853], the EC50 under setting [1] fell in the range of 10 to 50 µM.

`FC(F)Cn1ncc2ncc(N3CCC4(CC3)CC(Oc3ccncc3C(F)(F)F)C4)nc21` [Cmpd 706] returned an EC50 under setting [1] of less than 10 µM.

Consider `FC(F)Cn1ncc2ncc(N3CC4(CCN(c5ccc(C(F)(F)F)cn5)CC4)C3)nc21` [Compound 124, 2-[1-(2,2-difluoroethyl)-1H-pyrazolo[3,4-b]pyrazin-6-yl]-7-[5-(trifluoromethyl)pyridin-2-yl]-2,7-diazaspiro[3.5]nonane], for which, under setting [1], the EC50 is less than 10 µM.

With `Cc1ncc(N2CC3(CCN(c4ncc5c(C)nn(CC(F)(F)F)c5n4)C3)C2)c(C(F)(F)F)n1` [Cmpd 620], the concentration giving a half-maximal response (EC50) (EC50 given as range classes) fell in the range of 10 to 50 µM.

For the setting “EC50 given as range classes”, `Cc1cc(CN2CC3(CCN(c4cnc5cnn(CC(F)F)c5n4)CC3)CC2=O)no1` [Cmpd 398] had an EC50 of 10 to 50 µM.

As to `Cc1nc(N2CC3(CCN(c4cnc5c(C)nn(CC(F)F)c5n4)C3)C2)cc(C(F)(F)F)n1` [Cmpd 503], the concentration for a half-maximal effect (EC50) under setting [1] was less than 10 µM.

`O=C1CC2(CCN(c3ncc4cnn(CC(F)F)c4n3)CC2)CN1Cc1cnc(C(F)(F)F)nc1` [Cmpd 917] had an EC50 under setting [1] of 50 to 100 µM.

`Cc1nc(N2CCC3(CCN(c4cnc5cnn(C6COC6)c5n4)CC3)C2)cc(C(F)(F)F)n1` [Cmpd 574]: under setting [1], the EC50 fell in the range of 10 to 50 µM.

Under setting [1], `CCn1c(-c2cncc(F)c2)nc2ncc(N3CCC4(CN(c5ccnc(C(F)(F)F)c5)C4)C3)nc21` [Cmpd 1044] had an EC50 of less than 10 µM.

As for `O=C1CC2(CC3CCC(C2)N3c2cnc3cnn(CC(F)F)c3n2)CN1c1cc(C(F)(F)F)ccn1` (stereo not shown) [Cmpd 723], under setting [1], the concentration giving a half-maximal response (EC50) fell in the range of 10 to 50 µM.

As for `Cc1nc(N2CC3(CCN(c4ncc5cnn(C)c5n4)C3)C2)cc(C(F)(F)F)n1` [Cmpd 647], the EC50 under setting [1] was in the range of 10 to 50 µM.

For `COc1nn(CC(F)F)c2nc(N3CCC4(CCN(c5ccc(C(F)(F)F)nc5)C4)CC3)cnc12` [Cmpd 833], the EC50 (EC50 given as range classes) is less than 10 µM.

Take `O=C1CC2(CCN(c3ncc4cnn(CC(F)F)c4n3)CC2)CN1c1ccc(OCC(F)(F)F)nc1` [Cmpd 921]: the EC50 under setting [1] lay within 10 to 50 µM.

`COc1nn(CC(F)F)c2nc(N3CCC4(CN(c5ccnc(C(F)(F)F)c5)C4)C3)ncc12` [Cmpd 938] came in with an EC50 under setting [1] of 10 to 50 µM.

With `FC(F)Cn1ncc2ncc(N3CCC4(CC3)CN(c3cncc(C(F)(F)F)c3)CCO4)nc21` [Cmpd 206], for the setting “EC50 given as range classes”, the EC50 is less than 10 µM.

`O=C1CC2(CCN(c3cnc4cnn(CC(F)F)c4n3)C2)CCN1c1cc(C(F)(F)F)ccn1` (stereo not shown) [Cmpd 793] displayed a 50% effective concentration (EC50) (EC50 given as range classes) of 10 to 50 µM.

On to `FC(F)(F)c1ccc(N2CCC3(CCN(c4nccn5cncc45)CC3)C2)cn1` [Cmpd 240], for which, under setting [1], the half-maximal effective concentration (EC50) was in the range of 50 to 100 µM.

For the compound `Cc1nc(N2CC3(CCN(c4cnc5c(C)nn(C6COC6)c5n4)CC3)C2)cc(C(F)(F)F)n1` [Cmpd 565], the half-maximal effective concentration (EC50) under setting [1] lay within 10 to 50 µM.

Take `FC(F)(F)c1ncc(N2CCC3(CCN(c4ncc5cnn(C6COC6)c5n4)C3)C2)cn1` (stereo not shown) [Cmpd 535]: the half-maximal effective concentration (EC50) under setting [1] is less than 10 µM.

In the case of `FC(F)Cn1ncc2ncc(N3CCCC4(C3)CN(c3cnccc3C(F)(F)F)C4)nc21` [Compound 17, 6-[1-(2,2-difluoroethyl)-1H-pyrazolo[3,4-b]pyrazin-6-yl]-2-[4-(trifluoromethyl)pyridin-3-yl]-2,6-diazaspiro[3.5]nonane], the concentration for a half-maximal effect (EC50) under setting [1] is 10 to 50 µM.

`Cc1nn(CC(F)F)c2nc(N3CCC4(CN(c5ccnc(C(F)(F)F)c5)C4)C3=O)cnc12` [Cmpd 1001] came in with an EC50 (EC50 given as range classes) of less than 10 µM.

Consider `Cc1nc(N2CC3(CCN(c4ccc5nccn5n4)C3)C2)cc(C(F)(F)F)n1` [Cmpd 637], for which, under setting [1], the EC50 lay within 10 to 50 µM.

Under “EC50 given as range classes”, `FC(F)(F)c1ncc(N2CC3(CCN(c4cncc(-c5nnc(C(F)(F)F)o5)n4)C3)C2)cn1` [Cmpd 1026] gave an EC50 of 50 to 100 µM.

For `Cc1nn(C2COC2)c2nc(N3CC4(CC3=O)CN(c3ccnc(C(F)(F)F)c3)C4)ncc12` [Cmpd 1009], the EC50 (EC50 given as range classes) lay in the range of 10 to 50 µM.

The compound `Cc1ccc(N2CC3(CCN(c4cnc5cnn(CC(F)F)c5n4)CC3)CC2=O)c(OC(F)F)n1` [Cmpd 781] yielded a concentration for a half-maximal effect (EC50) (EC50 given as range classes) of less than 10 µM.

As for `O=C1N(c2cc(C(F)(F)F)ccn2)C(=O)C2(CCN(c3cnc4cnn(CC(F)F)c4n3)CC2)N1Cc1cc(F)cc(F)c1` [Cmpd 716], the EC50 under setting [1] is less than 10 µM.

With `Cc1nc(N2CC3(CCN(c4cnc5cnn(CC(F)F)c5n4)C3)C2)c(F)c(C(F)(F)F)n1` [Cmpd 1137], under setting [1], the EC50 lay in the range of 50 to 100 µM.

Under setting [1], `Cc1nc(N2CC3(CCN(c4cncc(-c5ccn(CC(F)F)n5)n4)C3)C2)cc(C(F)(F)F)n1` [Cmpd 1118] showed a concentration for a half-maximal effect (EC50) greater than 100 µM.

`FC(F)Cn1ncc2ncc(N3CCC4(CC3)CN(c3ccc(C(F)(F)F)cn3)C4)nc21` [Compound 78, 7-[1-(2,2-difluoroethyl)-1H-pyrazolo[3,4-b]pyrazin-6-yl]-2-[5-(trifluoromethyl)pyridin-2-yl]-2,7-diazaspiro[3.5]nonane]: the EC50 under setting [1] is 10 to 50 µM.

Compound `Cc1cc(N2CC3(CCN(c4ncc5c(C)nn(C6COC6)c5n4)C3)C2)nc(C)n1` [Cmpd 644] yielded a concentration giving a half-maximal response (EC50) under setting [1] of 10 to 50 µM.

Turning to `O=C1CC2(CCN1c1ccc(C(F)(F)F)nc1)CN(c1cnc3cnn(CC(F)F)c3n1)C2` [Cmpd 910], the 50% effective concentration (EC50) under setting [1] fell in the range of 10 to 50 µM.

Turning to `O=C1CC2(CCN(c3ccnc(C(F)(F)F)c3)C2)CN1c1cnc2cnn(CC(F)F)c2n1` (stereo not shown) [Cmpd 506], under setting [1], the EC50 was greater than 100 µM.

As to `Cc1nc(N2CCC3(CCN(c4nc5c(cnn5CC(F)F)c(=O)n4CC(C)C)CC3)C2)cc(C(F)(F)F)n1` [Cmpd 1107], the EC50 under setting [1] is less than 10 µM.

The compound `CCN1C(=O)N(c2ccc(C(F)(F)F)nc2)C(=O)C12CCN(c1ncc3c(C)nn(CC(F)F)c3n1)CC2` [Cmpd 874] showed an EC50 under setting [1] of less than 10 µM.

Under setting [1], `O=C1N(c2cnc3cnn(CC(F)F)c3n2)CCC12CCN(c1ccnc(C(F)(F)F)c1)CC2` [Compound 118, 2-[1-(2,2-difluoroethyl)-1H-pyrazolo[3,4-b]pyrazin-6-yl]-8-[2-(trifluoromethyl)pyridin-4-yl]-2,8-diazaspiro[4.5]decan-1-one] had an EC50 of 10 to 50 µM.

For the compound `Cn1c(N2CCC3(CN(c4cnc(C(F)(F)F)nc4)C3)C2)nc2c(cnn2CC(F)(F)F)c1=O` [Cmpd 1018], where the note is “EC50 given as range classes”, the EC50 fell in the range of 10 to 50 µM.

Consider `CCc1sc(C(F)(F)F)nc1N1CC2(CCN(c3cnc4cnn(CC(F)F)c4n3)CC2)CC1=O` [Cmpd 973], for which the EC50 under setting [1] is 10 to 50 µM.

Under setting [1], `FC(F)(F)c1ccc(N2CC3(CCN(c4cnc5cnn(C6COC6)c5n4)C3)C2)cn1` [Cmpd 660] showed an EC50 of 10 to 50 µM.

With `Cc1nc(N2CC3(CCN(c4cncc(-c5ccnn5CC(F)(F)F)n4)C3)C2)cc(C(F)(F)F)n1` [Cmpd 1121], under setting [1], the concentration giving a half-maximal response (EC50) was greater than 100 µM.

Consider `FC(F)Cn1ncc2ncc(N3CCC4(CC3)CC(COc3cnccc3C(F)(F)F)C4)nc21` [Cmpd 699], for which the EC50 under setting [1] is less than 10 µM.

Compound `Cc1nc(N2CCC3(CCN(c4cnc5cnn(CC(F)F)c5n4)CC3)C2)cc(C(F)(F)F)n1` [Cmpd 511] registered an EC50 under setting [1] of less than 10 µM.

The compound `Cc1nc(N2CCC3(CC2)CCN(c2cnc4cnn(C5COC5)c4n2)C3)cc(C(F)(F)F)n1` [Cmpd 583] returned an EC50 (EC50 given as range classes) greater than 100 µM.

Regarding `FC(F)Cn1ncc2ncc(N3CCCC4(CN(c5ccnc(C(F)(F)F)c5)C4)C3)nc21` [Compound 12, 6-[1-(2,2-difluoroethyl)-1H-pyrazolo[3,4-b]pyrazin-6-yl]-2-[2-(trifluoromethyl)pyridin-4-yl]-2,6-diazaspiro[3.5]nonane], the 50% effective concentration (EC50) under setting [1] lay within 10 to 50 µM.

Regarding `CCOc1ccc(CN2CCC3(CCN(c4cnc5cnn(CC(F)F)c5n4)CC3)C2=O)cn1` [Cmpd 356], under setting [1], the concentration giving a half-maximal response (EC50) lay in the range of 10 to 50 µM.

Usually EC50 stands for the concentration that produces a half-maximal response.
